Data on 13 molecules can be found in patent US4402961A, “Derivatives of 1-(2-,3- or 4-quinolyl)-2- or -3-(2- or 3-piperidyl or -pyrrolidinyl) ethanone or propanone, and their utilization as antiarrhythmics, anticonvulsivants and for the treatment of anxiety” (Pharmindustrie, priority 1980, dated 1983).

The test system of the first assay is ventricular arrhythmias caused by the aconitine. The assay is described as follows: aconitine test on the rat (antiarrhythmic activity). Format: in vivo. The settings on record: iv, read-out: ED50, dose which increases by 50% the time of perfusion of the aconitine versus control animals. As to the method: The principle of the method rests on the time of induction of the ventricular arrhythmias caused by the aconitine which is slowly perfused in rats. An antiarrhythmic substance retards the appearance of the arrhythmias and the delay is proportional to the activity of the molecule.
Groups of 5 male rats are used. An individual annesthesia is realized (10% urethane: 1 g/kg/ip) in order to permit a catheterization of the vein of the penis. The electrocardiogram is recorded. At time T=O the substance studied is injected in the form of an aqueous solution, at the rate of 2.5 ml of solution per kg in 30 seconds. At time T=90 seconds, say 1 minute after the end of the injection, the aconitine is perfused at the rate of 20 μg per minute, until the appearance of extra […] systoles. The time of perfusion of the aconitine is noted.
The results are expressed by ED50, which is the dose of product in mg/kg which increases by 50% the time of perfusion of the aconitine in comparison with the perfusion time of aconitine for the control animals.
For the molecule `O=C(CC1CCCNC1)c1cc(-c2ccccc2)nc2ccccc12` (stereo not drawn) [Example 3, 1-[4-(2-phenyl)quinolyl]-2-(3-piperidyl)-ethanone], the ED50 was 2.8 mg/kg.
As for `COc1ccc2nccc(CCCC3CCCNC3)c2c1` (stereo not drawn) [Example 11, 6-methoxy-4-[3-(3-piperidyl)-propyl]-quinoline], the ED50 amounted to 7.8 mg/kg.
For the molecule `c1ccc(-c2cc(CCCC3CCCNC3)c3ccccc3n2)cc1` (stereo not drawn) [Example 14, 2-phenyl-4-[3-(3-piperidyl)-propyl]-quinoline], the ED50 came to 2.2 mg/kg.

The target of a further assay is Cerebral Binding Sites of the Benzodiazepines.
Assay: not given
Conditions: not given
`COc1ccc2nccc(C(=O)CCC3CCCNC3)c2c1` (stereo not drawn) [Example 1, 1-[4-(6-methoxy)quinolyl]-3-(3-piperidyl)-1-propanone] showed a Ki of 2 µM.
For `O=C(CCC1CCCNC1)c1cc(-c2ccccc2)nc2ccccc12` (stereo not drawn) [Example 4, 1-[4-(2-phenyl)quinolyl]-3-(3-piperidyl)-1-propanone], the affinity, expressed as Ki, was 0.8 µM.
Turning to `COc1ccc2nccc(CCCC3CCCNC3)c2c1` (stereo not drawn) [Example 11, 6-methoxy-4-[3-(3-piperidyl)-propyl]-quinoline], the Ki was 5.5 µM.
In the case of `c1ccc(-c2cc(CCC3CCCNC3)c3ccccc3n2)cc1` (stereo not drawn) [Example 13, 2-phenyl-4-[2-(3-piperidyl)-ethyl]-quinoline], the Ki was 0.1 µM.
In the case of `c1ccc(-c2cc(CCCC3CCCNC3)c3ccccc3n2)cc1` (stereo not drawn) [Example 14, 2-phenyl-4-[3-(3-piperidyl)-propyl]-quinoline], the affinity corresponds to a Ki of 1 µM.
Turning to `Clc1ccc(-c2cc(CCC3CCCNC3)c3ccccc3n2)cc1` (stereo not drawn) [Example 20, 2-(4-chloro-phenyl)-4-[2-(3-piperidyl)-ethyl]-quinoline], the Ki turned out to be 1.6 µM.
Molecule `c1ccc(-c2cc(CCC3CCCCN3)c3ccccc3n2)cc1` (stereo not drawn) [Example 22, 2-phenyl-4-[2-(2-piperidyl)-ethyl]-quinoline] had a Ki of 0.6 µM.
For the molecule `CN1CCCC(CCc2cc(-c3ccccc3)nc3ccccc23)C1` (stereo not drawn) [Example 23, 4-{2-[3-(1-methyl)piperidyl]-ethyl}-2-phenyl-quinoline], the Ki came out at 0.9 µM.
The same measure, in the same setting: the result for `CN1CCCC(CCCc2cc(-c3ccccc3)nc3ccccc23)C1` (stereo not drawn) [Example 24, 4-{3-[3-(1-methyl)piperidyl]-propyl}-2-phenyl-quinoline] reads 3 µM.
`c1ccc(-c2cc(CCC3CCNC3)c3ccccc3n2)cc1` (stereo not drawn) [Example 29, 2-phenyl-4-[2-(3-pyrrolidinyl)-ethyl]-quinoline] had a Ki of 0.7 µM.
On to `c1ccc(-c2cc(CCCC3CCCCN3)c3ccccc3n2)cc1` (stereo not drawn) [Example 30, 4-[3-(2-piperidyl)-propyl]-2-phenyl-quinoline], for which the affinity corresponds to a Ki of 2.7 µM.

The target is the same in the next assay. Kind of assay: displacement of tritiated Diazepam (3H Diazepam) from cerebral benzodiazepine binding sites (method of Mohler and Coll.). The settings on record: read-out: KD, constant of affinity of 3H Diazepam; constant used in the Ki formula.
On to `CN1C(=O)CN=C(c2ccccc2)c2cc(Cl)ccc21` [^3 H Diazepam], for which the dissociation constant (Kd) stood at 2.74 µM.

As usually defined, the ED50 is the dose at which the effect has come halfway, by size or by number of responders. A word on the Ki: it is a measure of affinity in units of concentration, obtained from inhibition or displacement. A word on the Kd: it is the concentration at which binding is half-saturated.
